Assay results: the supplement of paper PMC10307832

How the values were obtained:
Assay in all cases: relative viability (nuclei count vs DMSO), 5 days (fraction); higher = more cells survive
[1] = tested on: NCI-H727
How it was run: (§1)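 Each reported value is a median over duplicate plates. It expresses relative viability: treated-well nuclei count divided by vehicle-well nuclei count. Lung cancer cell lines in 1536-well plates were dosed by pin tool a day after seeding, alone with one drug or with a fixed anchor-drug dose plus five library-drug doses (not always all listed) in √10 steps, and nuclei were counted after 5 days.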

[2] = tested on: PC-3 [JPC-3]
How it was run: as §1

[3] = tested on: NCI-H661
How it was run: as §1

[4] = tested on: NCI-H2087
How it was run: as §1

[5] = tested on: NCI-H1651
How it was run: as §1

[6] = tested on: NCI-H441
How it was run: as §1

[7] = tested on: NCI-H2023
How it was run: as §1

[8] = tested on: 201T
How it was run: as §1

[9] = tested on: NCI-H460
How it was run: as §1

[10] = tested on: ABC-1
How it was run: as §1

[11] = tested on: NCI-H1915
How it was run: as §1

[12] = tested on: H3255
How it was run: as §1

[13] = tested on: CAL-12T
How it was run: as §1

[14] = tested on: LC-2-ad
How it was run: as §1

[15] = tested on: NCI-H650
How it was run: as §1

[16] = tested on: BEN
How it was run: as §1

[17] = tested on: LCLC-97TM1
How it was run: as §1

[18] = tested on: NCI-H1944
How it was run: as §1

[19] = tested on: NCI-H520
How it was run: as §1

[20] = tested on: A-427
How it was run: as §1

[21] = tested on: NCI-H596
How it was run: as §1

COc1nc(C)cnc1NS(=O)(=O)c1cccnc1-c1ccc(-c2nnco2)cc1 [Zibotentan] + C[C@]1(O)C[C@@H](c2nc(-c3ccc4ccc(-c5ccccc5)nc4c3)c3c(N)nccn32)C1 [Linsitinib] (partner 1 µM)
relative viability ([1]; first compound 0.08 µM): 0.208
relative viability ([1]; first compound 0.253 µM): 0.322
relative viability ([1]; first compound 0.8 µM): 0.248
relative viability ([1]; first compound 2.53 µM): 0.314
relative viability ([2]; first compound 0.08 µM): 0.931
relative viability ([2]; first compound 0.253 µM): 0.964
relative viability ([2]; first compound 0.8 µM): 1.01
relative viability ([2]; first compound 2.53 µM): 0.98
relative viability ([3]; first compound 0.08 µM): 0.545
relative viability ([3]; first compound 0.253 µM): 0.486
relative viability ([3]; first compound 0.8 µM): 0.518
relative viability ([3]; first compound 2.53 µM): 0.68
relative viability ([4]; first compound 0.08 µM): 1.2
relative viability ([4]; first compound 0.253 µM): 0.971
relative viability ([4]; first compound 0.8 µM): 1.07
relative viability ([4]; first compound 2.53 µM): 0.914
relative viability ([5]; first compound 0.08 µM): 1.17
relative viability ([5]; first compound 0.253 µM): 0.949
relative viability ([5]; first compound 0.8 µM): 0.92
relative viability ([5]; first compound 2.53 µM): 0.849
relative viability ([6]; first compound 0.08 µM): 0.634
relative viability ([6]; first compound 0.253 µM): 0.552
relative viability ([6]; first compound 0.8 µM): 0.633
relative viability ([6]; first compound 2.53 µM): 0.535
relative viability ([7]; first compound 0.08 µM): 0.57
relative viability ([7]; first compound 0.253 µM): 0.544
relative viability ([7]; first compound 0.8 µM): 0.743
relative viability ([7]; first compound 2.53 µM): 0.654
relative viability ([8]; first compound 0.08 µM): 1
relative viability ([8]; first compound 0.253 µM): 1.02
relative viability ([8]; first compound 0.8 µM): 1.01
relative viability ([8]; first compound 2.53 µM): 1.13
relative viability ([9]; first compound 0.08 µM): 0.789
relative viability ([9]; first compound 0.8 µM): 0.803
relative viability ([9]; first compound 2.53 µM): 0.742
relative viability ([10]; first compound 0.08 µM): 0.775
relative viability ([10]; first compound 0.253 µM): 0.803
relative viability ([10]; first compound 0.8 µM): 1.01
relative viability ([10]; first compound 2.53 µM): 0.822
relative viability ([11]; first compound 0.08 µM): 0.917
relative viability ([11]; first compound 0.253 µM): 1.19
relative viability ([11]; first compound 0.8 µM): 1.11
relative viability ([11]; first compound 2.53 µM): 1.08
relative viability ([12]; first compound 0.08 µM): 1.02
relative viability ([12]; first compound 0.253 µM): 0.998
relative viability ([12]; first compound 0.8 µM): 0.899
relative viability ([12]; first compound 2.53 µM): 0.983
relative viability ([13]; first compound 0.08 µM): 0.903
relative viability ([13]; first compound 0.253 µM): 0.876
relative viability ([13]; first compound 0.8 µM): 0.889
relative viability ([13]; first compound 2.53 µM): 0.634
relative viability ([14]; first compound 0.08 µM): 0.904
relative viability ([14]; first compound 0.253 µM): 0.828
relative viability ([14]; first compound 0.8 µM): 0.87
relative viability ([14]; first compound 2.53 µM): 0.976
relative viability ([15]; first compound 0.08 µM): 1
relative viability ([15]; first compound 0.253 µM): 0.676
relative viability ([15]; first compound 0.8 µM): 1.02
relative viability ([15]; first compound 2.53 µM): 0.881
relative viability ([16]; first compound 0.08 µM): 1.04
relative viability ([16]; first compound 0.253 µM): 0.773
relative viability ([16]; first compound 0.8 µM): 0.958
relative viability ([16]; first compound 2.53 µM): 0.886
relative viability ([17]; first compound 0.08 µM): 0.152
relative viability ([17]; first compound 0.253 µM): 0.171
relative viability ([17]; first compound 0.8 µM): 0.175
relative viability ([17]; first compound 2.53 µM): 0.215
relative viability ([18]; first compound 0.08 µM): 1.19
relative viability ([18]; first compound 0.253 µM): 1.12
relative viability ([18]; first compound 0.8 µM): 1.1
relative viability ([18]; first compound 2.53 µM): 1.15
relative viability ([19]; first compound 0.08 µM): 1.05
relative viability ([19]; first compound 0.253 µM): 0.892
relative viability ([19]; first compound 0.8 µM): 0.904
relative viability ([19]; first compound 2.53 µM): 1.02
relative viability ([20]; first compound 0.08 µM): 1.12
relative viability ([20]; first compound 0.253 µM): 1.17
relative viability ([20]; first compound 0.8 µM): 1.14
relative viability ([20]; first compound 2.53 µM): 1.12
relative viability ([21]; first compound 0.08 µM): 1.23
relative viability ([21]; first compound 0.253 µM): 1.08
relative viability ([21]; first compound 0.8 µM): 1.03
relative viability ([21]; first compound 2.53 µM): 1.11

COc1nc(C)cnc1NS(=O)(=O)c1cccnc1-c1ccc(-c2nnco2)cc1 [Zibotentan] + Cc1nc(NC(=O)N2CCC[C@H]2C(N)=O)sc1-c1ccnc(C(C)(C)C(F)(F)F)c1 [Alpelisib] (partner 2 µM)
relative viability ([1]; first compound 0.08 µM): 0.483
relative viability ([1]; first compound 0.253 µM): 0.794
relative viability ([1]; first compound 0.8 µM): 0.55
relative viability ([1]; first compound 2.53 µM): 0.643
relative viability ([2]; first compound 0.08 µM): 1.01
relative viability ([2]; first compound 0.253 µM): 1.06
relative viability ([2]; first compound 0.8 µM): 1.05
relative viability ([2]; first compound 2.53 µM): 1.04
relative viability ([3]; first compound 0.08 µM): 0.717
relative viability ([3]; first compound 0.253 µM): 0.49
relative viability ([3]; first compound 0.8 µM): 0.569
relative viability ([3]; first compound 2.53 µM): 0.578
relative viability ([4]; first compound 0.08 µM): 1.06
relative viability ([4]; first compound 0.253 µM): 1.13
relative viability ([4]; first compound 0.8 µM): 1.03
relative viability ([4]; first compound 2.53 µM): 1.05
relative viability ([5]; first compound 0.08 µM): 0.882
relative viability ([5]; first compound 0.253 µM): 0.88
relative viability ([5]; first compound 0.8 µM): 0.88
relative viability ([5]; first compound 2.53 µM): 1.04
relative viability ([6]; first compound 0.08 µM): 0.757
relative viability ([6]; first compound 0.8 µM): 0.776
relative viability ([6]; first compound 2.53 µM): 0.779
relative viability ([7]; first compound 0.08 µM): 0.632
relative viability ([7]; first compound 0.253 µM): 0.485
relative viability ([7]; first compound 0.8 µM): 0.658
relative viability ([7]; first compound 2.53 µM): 0.591
relative viability ([8]; first compound 0.08 µM): 1.05
relative viability ([8]; first compound 0.253 µM): 0.993
relative viability ([8]; first compound 0.8 µM): 1.1
relative viability ([8]; first compound 2.53 µM): 1.11
relative viability ([9]; first compound 0.08 µM): 0.58
relative viability ([9]; first compound 0.8 µM): 0.57
relative viability ([9]; first compound 2.53 µM): 0.452
relative viability ([10]; first compound 0.08 µM): 1.1
relative viability ([10]; first compound 0.253 µM): 0.689
relative viability ([10]; first compound 0.8 µM): 1.11
relative viability ([10]; first compound 2.53 µM): 1.07
relative viability ([11]; first compound 0.08 µM): 1.14
relative viability ([11]; first compound 0.253 µM): 1.1
relative viability ([11]; first compound 0.8 µM): 1.09
relative viability ([11]; first compound 2.53 µM): 1.03
relative viability ([12]; first compound 0.08 µM): 0.712
relative viability ([12]; first compound 0.253 µM): 0.698
relative viability ([12]; first compound 0.8 µM): 0.672
relative viability ([12]; first compound 2.53 µM): 0.727
relative viability ([13]; first compound 0.08 µM): 1.25
relative viability ([13]; first compound 0.253 µM): 0.923
relative viability ([13]; first compound 0.8 µM): 1.33
relative viability ([13]; first compound 2.53 µM): 1.23
relative viability ([14]; first compound 0.08 µM): 0.852
relative viability ([14]; first compound 0.253 µM): 0.869
relative viability ([14]; first compound 0.8 µM): 0.92
relative viability ([14]; first compound 2.53 µM): 1.03
relative viability ([15]; first compound 0.08 µM): 1.13
relative viability ([15]; first compound 0.253 µM): 1.06
relative viability ([15]; first compound 0.8 µM): 1.03
relative viability ([15]; first compound 2.53 µM): 1.16
relative viability ([16]; first compound 0.08 µM): 1.17
relative viability ([16]; first compound 0.253 µM): 0.955
relative viability ([16]; first compound 0.8 µM): 1.02
relative viability ([16]; first compound 2.53 µM): 0.922
relative viability ([17]; first compound 0.08 µM): 0.309
relative viability ([17]; first compound 0.253 µM): 0.238
relative viability ([17]; first compound 0.8 µM): 0.183
relative viability ([17]; first compound 2.53 µM): 0.264
relative viability ([18]; first compound 0.08 µM): 0.915
relative viability ([18]; first compound 0.253 µM): 0.808
relative viability ([18]; first compound 0.8 µM): 0.756
relative viability ([18]; first compound 2.53 µM): 0.888
relative viability ([19]; first compound 0.08 µM): 0.928
relative viability ([19]; first compound 0.253 µM): 0.848
relative viability ([19]; first compound 0.8 µM): 0.768
relative viability ([19]; first compound 2.53 µM): 0.972
relative viability ([20]; first compound 0.08 µM): 1.08
relative viability ([20]; first compound 0.253 µM): 1.14
relative viability ([20]; first compound 0.8 µM): 1.09
relative viability ([20]; first compound 2.53 µM): 1.08
relative viability ([21]; first compound 0.08 µM): 0.532
relative viability ([21]; first compound 0.253 µM): 0.482
relative viability ([21]; first compound 0.8 µM): 0.485
relative viability ([21]; first compound 2.53 µM): 0.484
